Counter-ions that a name gives are not always drawn.
Columns and labels:
[1] = tested on: subject afflicted with AMD or Stargardt disease; assay: Administration to the eye of a subject afflicted with AMD or Stargardt disease; assay type: in vivo; details: Example 113, present tense; administered to the eye
Procedure: An amount of a compound 81 is administered to the eye of a subject afflicted with AMD.
An amount of a compound 81 is administered to the eye of a subject afflicted with Stargardt disease.

RBP4 = RBP4 (Homo sapiens (Human), UniProt P02753); details: cited from earlier work
Abca4−/− mouse model = assay: Bisretinoid accumulation in Abca4−/− mouse model; assay type: in vivo; details: Example 112, present tense; 25 mg/kg for 12 weeks, mice starting at 17 weeks old
Procedure: (§1) Abca4−/− mice have A2E levels in the ˜15-19 pmoles/eye range at 17 weeks old. Mice, starting at 17 weeks old, were treated with 25 mg/kg of Compound 81 for 12 weeks.

serum RBP4 = serum RBP4 (Mus musculus (Mouse), UniProt Q00724); assay: Serum RBP4 levels in Abca4−/− mice; assay type: in vivo; details: Example 112, present tense; 25 mg/kg for 12 weeks, mice starting at 17 weeks old
Procedure: as §1

| SMILES | treatment of subject afflicted with AMD [1] | treatment of subject afflicted with Stargardt disease [1] | binding to RBP4, displacement of all-trans retinol (RBP4) | bisretinoid accumulation in Abca4−/− mouse model (Abca4−/− mouse model) | serum RBP4 reduction (serum RBP4) |
| --- | --- | --- | --- | --- | --- |
| CC(=O)N1CCc2c(C(=O)N3CCC(c4ccc(F)c(F)c4C(F)(F)F)CC3)n[nH]c2C1 [Compound 81, 1-(3-(4-(3,4-Difluoro-2-(trifluoromethyl)phenyl)piperidine-1-carbonyl)-4,5-dihydro-1H-pyrazolo[3,4-c]pyridin-6(7H)-yl)ethanone] | effective to treat the subject | effective to treat the subject |  |  |  |
| CC1=C(/C=C/C(C)=C/C=C/C(C)=C/C(=O)Nc2ccc(O)cc2)C(C)(C)CCC1 [fenretinide, N-(4-hydroxy-phenyl)retinamide] |  |  | bind to RBP4 |  |  |
| O=C(c1n[nH]c2c1CCNC2)N1CCC(c2cccc(F)c2C(F)(F)F)CC1 [Compound 30, (4-(3-Fluoro-2-(trifluoromethyl)phenyl)piperidin-1-yl)(4,5,6,7-tetrahydro-1H-pyrazolo[3,4-c]pyridin-3-yl)methanone Hydrochloride] |  |  |  | inhibit bisretinoid accumulation | significant serum RBP4 reduction |
| O=C(c1n[nH]c2c1CNC2)N1CCC(c2ccc(F)c(F)c2C(F)(F)F)CC1 [Compound 38, (4-(3,4-Difluoro-2-(trifluoromethyl)phenyl)piperidin-1-yl)(1,4,5,6-tetrahydropyrrolo[3,4-c]pyrazol-3-yl)methanone Hydrochloride] |  |  |  | inhibit bisretinoid accumulation | significant serum RBP4 reduction |
| O=C(c1n[nH]c2c1CCNC2)N1CCC(c2cccc(F)c2Cl)CC1 [Compound 40, (4-(2-Chloro-3-fluorophenyl)piperidin-1-yl)(4,5,6,7-tetrahydro-1Hpyrazolo[3,4-c]pyridin-3-yl)methanone Hydrochloride] |  |  |  | inhibit bisretinoid accumulation | significant serum RBP4 reduction |
| O=C(c1n[nH]c2c1CNCC2)N1CCC(c2cccc(F)c2Cl)CC1 [Compound 42, (4-(2-Chloro-3-fluorophenyl)piperidin-1-yl)(4,5,6,7-tetrahydro-1Hpyrazolo[4,3-c]pyridin-3-yl)methanone Hydrochloride] |  |  |  | inhibit bisretinoid accumulation | significant serum RBP4 reduction |
| O=C(c1n[nH]c2c1CNCC2)N1CCC(c2ccc(F)c(F)c2C(F)(F)F)CC1 [Compound 36, (4-(3,4-Difluoro-2-(trifluoromethyl)phenyl)piperidin-1-yl)(4,5,6,7-tetrahydro-1H-pyrazolo[4,3-c]pyridin-3-yl)methanone Trifluoroacetic Acid Salt] |  |  |  | inhibit bisretinoid accumulation | significant serum RBP4 reduction |
| O=C(c1n[nH]c2c1CCNC2)N1CCC(c2ccc(F)c(F)c2C(F)(F)F)CC1 [Compound 34] |  |  |  | inhibit bisretinoid accumulation | significant serum RBP4 reduction |

— patent US10913746B2, “Substituted 4-phenylpiperidines, their preparation and use” (The Trustees of Columbia University in the City of New York, priority 2014, dated 2021)
